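How tested: cells in 96-well plates exposed to compound for 48 hours at five concentrations. Abbreviation: GI50, concentration required for 50% inhibition of growth. TGI: concentration producing complete growth inhibition.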
Legend:
Assay in all cases: inhibition of tumour cell growth, NCI panel, 48 h
DU-145 prostate = test system: DU-145 prostate
SR leukemia = test system: SR leukemia
UACC-257 melanoma = test system: UACC-257 melanoma
IGROV1 ovarian = test system: IGROV1 ovarian
M14 melanoma = test system: M14 melanoma
MCF7 breast = test system: MCF7 breast
NCI/ADR-RES ovarian = test system: NCI/ADR-RES ovarian
COLO 205 colon = test system: COLO 205 colon
RXF 393 renal = test system: RXF 393 renal
HS 578T breast = test system: HS 578T breast
K-562 leukemia = test system: K-562 leukemia
HOP-62 NSCLC = test system: HOP-62 NSCLC
SK-MEL-28 melanoma = test system: SK-MEL-28 melanoma
OVCAR-5 ovarian = test system: OVCAR-5 ovarian
NCI-H460 lung = test system: NCI-H460 lung
HL-60(TB) leukemia = test system: HL-60(TB) leukemia
HCC-2998 colon = test system: HCC-2998 colon
SNB-75 CNS = test system: SNB-75 CNS
SW-620 colon = test system: SW-620 colon
LOX IMVI melanoma = test system: LOX IMVI melanoma
T-47D breast = test system: T-47D breast
CCRF-CEM leukemia = test system: CCRF-CEM leukemia
HCT-15 colon = test system: HCT-15 colon
NCI-H226 lung = test system: NCI-H226 lung
OVCAR-3 ovarian = test system: OVCAR-3 ovarian
KM12 colon = test system: KM12 colon
786-0 renal = test system: 786-0 renal
UACC-62 melanoma = test system: UACC-62 melanoma
BT-549 breast = test system: BT-549 breast
A549 NSCLC = test system: A549 NSCLC
MDA-MB-435 = test system: MDA-MB-435
OVCAR-4 ovarian = test system: OVCAR-4 ovarian
OVCAR-8 ovarian = test system: OVCAR-8 ovarian
SF-539 CNS = test system: SF-539 CNS
TK-10 renal = test system: TK-10 renal
EKVX NSCLC = test system: EKVX NSCLC
MOLT-4 leukemia = test system: MOLT-4 leukemia
SF-268 CNS = test system: SF-268 CNS
HCT-116 colon = test system: HCT-116 colon
RPMI-8226 leukemia = test system: RPMI-8226 leukemia
HOP-92 NSCLC = test system: HOP-92 NSCLC
PC-3 prostate = test system: PC-3 prostate
A498 renal = test system: A498 renal
MALME-3M melanoma = test system: MALME-3M melanoma
HT29 colon = test system: HT29 colon
SK-OV-3 ovarian = test system: SK-OV-3 ovarian
SK-MEL-5 melanoma = test system: SK-MEL-5 melanoma
MDA-MB-231 breast = test system: MDA-MB-231 breast
SF-295 CNS = test system: SF-295 CNS
CAKI-1 renal = test system: CAKI-1 renal
SK-MEL-2 melanoma = test system: SK-MEL-2 melanoma
U251 CNS = test system: U251 CNS
UO-31 renal = test system: UO-31 renal
NCI-H23 lung = test system: NCI-H23 lung
SN12C renal = test system: SN12C renal
SNB-19 CNS = test system: SNB-19 CNS
NCI-H522 lung = test system: NCI-H522 lung
ACHN renal = test system: ACHN renal

Compound O=C(c1ccccc1)c1c2ccccn2c2cccc[n+]12 has a TGI (DU-145 prostate) greater than 100 µM, a TGI (SR leukemia) greater than 100 µM and a TGI (UACC-257 melanoma) greater than 100 µM. For the same compound, the TGI (IGROV1 ovarian) was greater than 100 µM, the TGI (M14 melanoma) was greater than 100 µM and the TGI (MCF7 breast) was greater than 100 µM. The TGI (NCI/ADR-RES ovarian) was greater than 100 µM, the TGI (COLO 205 colon) was greater than 100 µM and the TGI (RXF 393 renal) was greater than 100 µM. It also gave a TGI (HS 578T breast) greater than 100 µM, a TGI (K-562 leukemia) greater than 100 µM and a TGI (HOP-62 NSCLC) greater than 100 µM. For the same compound, the TGI (SK-MEL-28 melanoma) was greater than 100 µM, the TGI (OVCAR-5 ovarian) was greater than 100 µM and the TGI (NCI-H460 lung) was greater than 100 µM. The TGI (HL-60(TB) leukemia) was greater than 100 µM, the TGI (HCC-2998 colon) was greater than 100 µM and the TGI (SNB-75 CNS) was greater than 100 µM. The TGI (SW-620 colon) was greater than 100 µM, the TGI (LOX IMVI melanoma) was greater than 100 µM and the TGI (T-47D breast) was greater than 100 µM. For the same compound, the TGI (CCRF-CEM leukemia) was greater than 100 µM, the TGI (HCT-15 colon) was greater than 100 µM and the TGI (NCI-H226 lung) was greater than 100 µM. It also gave a TGI (OVCAR-3 ovarian) greater than 100 µM, a TGI (KM12 colon) greater than 100 µM and a TGI (786-0 renal) greater than 100 µM. The TGI (UACC-62 melanoma) was greater than 100 µM, the TGI (BT-549 breast) was greater than 100 µM and the TGI (A549 NSCLC) was greater than 100 µM. The TGI (MDA-MB-435) was greater than 100 µM, the TGI (OVCAR-4 ovarian) was greater than 100 µM and the TGI (OVCAR-8 ovarian) was greater than 100 µM. For the same compound, the TGI (SF-539 CNS) was greater than 100 µM, the TGI (TK-10 renal) was greater than 100 µM and the TGI (EKVX NSCLC) was greater than 100 µM. The TGI (MOLT-4 leukemia) was greater than 100 µM, the TGI (SF-268 CNS) was greater than 100 µM and the TGI (HCT-116 colon) was greater than 100 µM. For the same compound, the TGI (RPMI-8226 leukemia) was greater than 100 µM, the TGI (HOP-92 NSCLC) was greater than 100000 nM and the TGI (PC-3 prostate) was greater than 100 µM. It also gave a TGI (A498 renal) greater than 100 µM, a TGI (MALME-3M melanoma) greater than 100 µM and a TGI (HT29 colon) greater than 100 µM. It also gave a TGI (SK-OV-3 ovarian) greater than 100 µM, a TGI (SK-MEL-5 melanoma) greater than 100 µM and a TGI (MDA-MB-231 breast) greater than 100 µM. For the same compound, the TGI (SF-295 CNS) was greater than 100 µM, the TGI (CAKI-1 renal) was greater than 100 µM and the TGI (SK-MEL-2 melanoma) was greater than 100 µM. For the same compound, the TGI (U251 CNS) was greater than 100 µM.
In the case of COc1cccc(NCc2nnc(Nc3ccc(Cl)cc3)c3ccccc23)c1, the GI50 (UO-31 renal) is reported as 608 nM, the TGI (UO-31 renal) is reported as 5.28 µM and the GI50 (DU-145 prostate) is reported as 2400 nM. It also gave a TGI (DU-145 prostate) of 6.52 µM, a GI50 (NCI-H23 lung) of 1220 nM and a TGI (NCI-H23 lung) of 6.74 µM. The GI50 (SR leukemia) was 979 nM, the TGI (SR leukemia) was 8.85 µM and the GI50 (UACC-257 melanoma) was 2040 nM. The TGI (UACC-257 melanoma) was 5.28 µM, the GI50 (IGROV1 ovarian) was 904 nM and the TGI (IGROV1 ovarian) was 6.3 µM. The GI50 (M14 melanoma) was 850 nM, the TGI (M14 melanoma) was 4.69 µM and the GI50 (MCF7 breast) was 938 nM. The TGI (MCF7 breast) was 6.4 µM, the GI50 (NCI/ADR-RES ovarian) was 2550 nM and the TGI (NCI/ADR-RES ovarian) was 25 µM. For the same compound, the GI50 (COLO 205 colon) was 492 nM, the TGI (COLO 205 colon) was 4.01 µM and the GI50 (RXF 393 renal) was 2160 nM. It also gave a TGI (RXF 393 renal) of 6.11 µM, a GI50 (HS 578T breast) of 2900 nM and a TGI (HS 578T breast) of 11.5 µM. For the same compound, the GI50 (K-562 leukemia) was 1490 nM, the TGI (K-562 leukemia) was 13.1 µM and the GI50 (HOP-62 NSCLC) was 2060 nM. The TGI (HOP-62 NSCLC) was 8.48 µM, the GI50 (SK-MEL-28 melanoma) was 2620 nM and the TGI (SK-MEL-28 melanoma) was 6.17 µM. The GI50 (OVCAR-5 ovarian) was 3.38 µM, the TGI (OVCAR-5 ovarian) was 11.8 µM and the GI50 (NCI-H460 lung) was 2690 nM. For the same compound, the TGI (NCI-H460 lung) was 7.14 µM, the GI50 (HL-60(TB) leukemia) was 3.78 µM and the TGI (HL-60(TB) leukemia) was 13.1 µM. For the same compound, the GI50 (HCC-2998 colon) was 3.44 µM, the TGI (HCC-2998 colon) was 8.79 µM and the GI50 (SNB-75 CNS) was 293 nM. It also gave a TGI (SNB-75 CNS) of 5.27 µM, a GI50 (SN12C renal) of 2520 nM and a TGI (SN12C renal) of 10.7 µM. It also gave a GI50 (SW-620 colon) of 2980 nM, a TGI (SW-620 colon) of 8.13 µM and a GI50 (LOX IMVI melanoma) of 1110 nM. For the same compound, the TGI (LOX IMVI melanoma) was 4.84 µM, the GI50 (SNB-19 CNS) was 3.5 µM and the TGI (SNB-19 CNS) was 13 µM. It also gave a GI50 (T-47D breast) of 649 nM, a TGI (T-47D breast) of 6.56 µM and a GI50 (CCRF-CEM leukemia) of 2730 nM. For the same compound, the TGI (CCRF-CEM leukemia) was 13.4 µM, the GI50 (HCT-15 colon) was 1780 nM and the TGI (HCT-15 colon) was 7.56 µM. It also gave a GI50 (NCI-H226 lung) of 956 nM, a TGI (NCI-H226 lung) of 6.82 µM and a GI50 (OVCAR-3 ovarian) of 1650 nM. The TGI (OVCAR-3 ovarian) was 10 µM, the GI50 (KM12 colon) was 131 nM and the TGI (KM12 colon) was 6.52 µM. For the same compound, the GI50 (786-0 renal) was 2220 nM, the TGI (786-0 renal) was 7.62 µM and the GI50 (UACC-62 melanoma) was 1000 nM. For the same compound, the TGI (UACC-62 melanoma) was 5.76 µM, the GI50 (BT-549 breast) was 1900 nM and the TGI (BT-549 breast) was 7.42 µM. The GI50 (A549 NSCLC) was 1930 nM, the TGI (A549 NSCLC) was 9.42 µM and the GI50 (NCI-H522 lung) was 302 nM. The TGI (NCI-H522 lung) was 3.31 µM, the GI50 (MDA-MB-435) was 739 nM and the TGI (MDA-MB-435) was 4.38 µM. For the same compound, the GI50 (OVCAR-4 ovarian) was 1330 nM, the TGI (OVCAR-4 ovarian) was 17.6 µM and the GI50 (OVCAR-8 ovarian) was 3.61 µM. For the same compound, the TGI (OVCAR-8 ovarian) was 14.7 µM, the GI50 (SF-539 CNS) was 3.07 µM and the TGI (SF-539 CNS) was 6.56 µM. The GI50 (EKVX NSCLC) was 588 nM, the TGI (EKVX NSCLC) was 6.4 µM and the GI50 (MOLT-4 leukemia) was 1100 nM. It also gave a TGI (MOLT-4 leukemia) of 7.57 µM, a GI50 (SF-268 CNS) of 2050 nM and a TGI (SF-268 CNS) of 10.5 µM. The GI50 (HCT-116 colon) was 881 nM, the TGI (HCT-116 colon) was 4.2 µM and the GI50 (RPMI-8226 leukemia) was 1480 nM. The TGI (RPMI-8226 leukemia) was 7.51 µM, the GI50 (HOP-92 NSCLC) was 329 nM and the TGI (HOP-92 NSCLC) was 2910 nM. The GI50 (PC-3 prostate) was 1190 nM, the TGI (PC-3 prostate) was 9.33 µM and the GI50 (A498 renal) was 1270 nM. It also gave a TGI (A498 renal) of 4.42 µM, a GI50 (MALME-3M melanoma) of 1220 nM and a TGI (MALME-3M melanoma) of 6.23 µM. It also gave a GI50 (HT29 colon) of 340 nM, a TGI (HT29 colon) of 3.62 µM and a GI50 (ACHN renal) of 1560 nM. It also gave a TGI (ACHN renal) of 24.4 µM, a GI50 (SK-OV-3 ovarian) of 1130 nM and a TGI (SK-OV-3 ovarian) of 8.19 µM. It also gave a GI50 (SK-MEL-5 melanoma) of 819 nM, a TGI (SK-MEL-5 melanoma) of 4.18 µM and a GI50 (MDA-MB-231 breast) of 1320 nM. The TGI (MDA-MB-231 breast) was 6.32 µM, the GI50 (SF-295 CNS) was 1940 nM and the TGI (SF-295 CNS) was 8.25 µM. For the same compound, the GI50 (SK-MEL-2 melanoma) was 708 nM, the TGI (SK-MEL-2 melanoma) was 3.98 µM and the GI50 (U251 CNS) was 2780 nM. The TGI (U251 CNS) was 6.54 µM.
